Data published in PMC10499915 (Scientific Reports, 2023).
In brackets after ≈: the same amount, converted by molar mass. Where two headings read alike, the source gives them in different places. Square brackets hold non-standard residues; d marks the D form. Peptide text beside a SMILES is read from it. Aib = CC(C)(N)C(=O)O

Key:
A.baumanni ATCC 19606 = type: cell-based, Acinetobacter baumannii; conditions: ATCC 19606, 18 h
Method: (§1) The bacterial strains used were Escherichia coli ATCC 25922, Staphylococcus aureus ATCC 25923, Klebsiella pneumoniae ATCC 700603, Acinetobacter baumannii ATCC 19606, Pseudomonas aeruginosa ATCC 27853 and Staphylococcus epidermidis ATCC 12228. The reference bacterial strains used were purchased from American Type Culture Collection (ATCC) (Manassas, Virginia, USA). They were grown overnight (o/n) at 37 °C in complete Müller-Hinton broth (MHB, Difco) medium with shaking (130 rpm). The day after, the overnight bacterial cultures were diluted in fresh MHB (300 μL o/n culture in 10 mL) and incubated at 37 °C with shaking (130 rpm) for approximately 2 h (mid-log phase) until reaching an optical density (OD) at 600 nm (OD600) ≈ 0.3.
(§2) Peptides diluted in MHB to a concentration of 128 μM were added to the first column of wells of a 96-well round-bottom microtiter plate (Sarstedt, Milan, Italy) and serially diluted (1:2) in a final volume of 50 μL MHB was added to the next wells. Then, a mid-log bacterial cultures (OD 600≈ 0.3) were diluted to 5 × 10^5 colony-forming units (CFU)/mL in MHB and 50 μL of this bacterial suspension was added to each well. In this way, the final bacterial concentration was reduced to 2.5 × 10^5 CFU/mL and the peptide concentration in the wells was also halved in a final volume of 100 μL (final bacteria load was 2.5 × 10^4 CFU/well). The same amount of untreated bacteria in MHB was used as a control for bacterial growth. […] MIC was determined by visual inspection at the end of incubation as the first clear well. Data are reported as moda of independent experiments repeated three times or four times in case of uncertain values.

S.aureus ATCC 25923 = type: cell-based, Staphylococcus aureus
Method: as §1, §2

K.pneumoniae ATCC 700603 = type: cell-based, Klebsiella pneumoniae; conditions: ATCC 700603, 18 h
Method: as §1, §2

[1] = Hydrophobicity by RP-HPLC retention time; type: physicochemical; conditions: for Retention time tR: used as measure of hydrophobicity, RP-HPLC, Phenomenex Luna C18 (100 Å, 5µ), linear gradient 5%B to 95%B over 30 min, A 0.1% TFA in 9:1 water:acetonitrile, B 0.1% TFA in 9:1 acetonitrile:water, 1 mL/min, peptide 0.5 mg/mL in MeOH, UV 215 and 280 nm
Method: Peptide hydrophobicity was calculated as difference in retention times between peptide analogues b–h and peptide a. Each peptide was dissolved in MeOH to a concentration of 0.5 mg/mL and then subjected to RP-HPLC on an analytical Phenomenex Luna C18 (100 Å, 5µ) column using 0.1% TFA in 9:1 water:acetonitrile as solvent A, and 0.1% TFA in 9:1 acetonitrile:water as solvent B. The peptides were eluted using a linear gradient as follows: 5%B to 95%B over 30 min. The flow rate was 1 mL/min and the absorbance was measured at 215 nm and 280 nm. The retention time was recorded for each peptide.

[2] = Circular dichroism, helicity; type: physicochemical; conditions: CD in TFE; taken as suggesting aggregation (coiled-coil)
Method: The secondary structure of the peptides was investigated by circular dichroism (CD) spectroscopy in various environments, including 0.2 mM potassium-phosphate buffer (aqueous solution, pH 7), 100 mM sodium dodecyl sulphate (SDS), and 2,2,2-trifluoroethanol (TFE). As these peptides are active on membranes, we chose SDS, as SDS micelles represent a model mimicking the prokaryotic cell membrane. TFE, on the other hand, is a solvent that induces the formation of helical structures.
The electronic CD curves in the far-UV region (below 260 nm) were obtained on a Jasco (Tokyo, Japan) model J-1500 spectropolarimeter with a fused quartz cell of 0.02 cm pathlength (Hellma, Mühlheim, Germany). The values are expressed in terms of [θ]R, the molar ellipticity per residue (deg × cm^2/dmol). Spectra were recorded at room temperature in water, in spectrograde TFE (99.9% Acros Organics, Geel, Belgium) and 100 mM SDS solution at 3 × 10^−4 M peptide concentration. The final molar peptide-to-lipid ratio is 1:300.

[3] = tested on: ram red blood cells (RBCs); conditions: 4% v/v ram RBCs in PBS, 1 h, 37 °C, absorbance 540 nm, 100% = 1% Triton X-100; all concentrations tested; n = 3
Method: The lytic potential towards eukaryotic cell membranes was assessed by measuring the release of haemoglobin from commercial ram red blood cells (RBCs) (Microbiol s.r.l., Cagliari, Italy) after exposure to the peptides. First, erythrocytes were isolated by centrifugation, washed with PBS and then suspended at 8% (v/v) in PBS. Secondly, 100 µL erythrocytes suspension was added into each well of a 96-well microplate. Then, 100 µL peptide solution was added to each well at different concentrations (the final concentration of erythrocytes suspension was 4% v/v), and the plates were incubated for 1 h at 37 °C and centrifuged at 1000 g for 10 min. Finally, 100 µL aliquots of supernatant were transferred to fresh 96-well microplate, and the release of haemoglobin was monitored by measuring the absorbance at 540 nm with Tecan microplate reader (Tecan Trading AG, Switzerland). 0% and 100% haemolysis were determined in PBS and 1% Triton X-100, respectively.

S.epidermidis ATCC 12228 = type: cell-based, Staphylococcus epidermidis; conditions: ATCC 12228, 18 h
Method: as §1, §2

P.aeruginosa ATCC 27853 = type: cell-based, Pseudomonas aeruginosa; conditions: ATCC 27853, 18 h
Method: as §1, §2

E.coli ATCC 25922 = type: cell-based, Escherichia coli; conditions: ATCC 25922, 18 h
Method: as §1, §2

chymotrypsin = tested on: T1, chymotrypsin; experiment: Proteolytic stability with chymotrypsin; type: in vitro ADME; conditions: chymotrypsin (isolated enzyme) in buffer; after 90 min; 0.125 mg peptide, 1.25 µg enzyme, Tris·HCl 50 mM pH 7.8, 37 °C; HPLC peak area (HPLC–MS); triplicates; read-out: percentage of intact peptide with chymotrypsin
T1 construct: purchased Sigma-Aldrich
Method: The stability of the peptides in the presence of chymotrypsin was monitored by HPLC–MS, analysing the fragments derived from the degradation of the peptide. All 20-mer analogues (a–f) are sensitive to chymotrypsin. The rate of peptide degradation was calculated as the percentage of intact peptide detected at defined time points. All peptides were mostly degraded within the first 15 min of incubation, with the exception of the lipopeptide e and the short peptide h. […] For peptide h, which was designed with an Aib residue to improve proteolytic resistance, 50% of the peptide was still intact after 90 min (Fig. 5A). The other peptides were cleaved on the C-terminal side of Leu21 or Trp23 as the first cleavage observed. Successive degradations involve Leu14 for all peptides (with the exception of a and h). Concerning 13-mer peptides (g and h), degradation at position 21 occurred only for g and not for the Aib containing peptide h, for which Leu14 is the sensitive point for chymotrypsin attack.
All the degradation experiments were executed in triplicates.

[4] = human serum, 37 °C, preliminary
Method: The proteolytic stability of synthetic peptides was assessed using chymotrypsin (Sigma–Aldrich) and human serum (Sigma–Aldrich)[46]. The peptide (0.125 mg) was dissolved in the minimum amount (5 µl) of DMSO (dimethylsulfoxide) and then diluted (final volume: 50 µl) with Tris·HCl 50 mM, pH 7.8. Then, it was incubated with and without the enzyme solution (1.25 µg of enzyme in 150 µl buffer) at 37 °C for 24 h. After the workup procedures, the samples were analysed by RP-HPLC as described in the ‘peptide synthesis and characterization’ experimental section. A peptide not resistant to chymotripsin was used as a positive test. As a control, we used the 128-137 C-terminal portion of natural Endonuclease V. The peptide sequence is as follows: […]. All the degradation experiments were executed in triplicates.
Figure S10. […] The bars indicate the final time when the HPLC-MS signal of the peptides is still detectable in solution.

[5] = tested on: E. coli, A. baumannii, K. pneumoniae, P. aeruginosa, and S. epidermidis strains; type: cell-based; conditions: 18 h
Method: as §1, §2

[6] = S.aureus ATCC 25923, Mueller–Hinton broth, 18 h, 37 °C, 2.5 × 10^5 CFU/mL, visual, mode of three independent tests

Row | Compound | MIC (A.baumanni ATCC 19606) [µM] | MIC (S.aureus ATCC 25923; [6]) [µM] | MIC (K.pneumoniae ATCC 700603) [µM] | Retention time tR [1] [min] | Hydrophobicity ΔtR ([1]; ΔtR = tR(x)−tR(a), relative to compound a, RP-HPLC C18, 5%–95%B over 30 min) | ratio between molar ellipticities at 222 and 208 nm [2] | membranolytic (haemolytic) effect on erythrocytes [3] | MIC (S.epidermidis ATCC 12228) [µM] | MIC (P.aeruginosa ATCC 27853) [µM] | MIC (E.coli ATCC 25922) [µM] | remaining at 1.5 h, 0.625 mg/mL (chymotrypsin) [%] | time peptide withstands proteolytic degradation in serum (HPLC-MS signal still detectable) [4] | MIC (S.aureus ATCC 25923; ATCC 25923, 18 h) [µM] | MIC, span over all tested bacterial strains except S. aureus [5] [µM]
1 | Ac-KRLKKIGKVLKWIAKIVGSI-NH2 [b] | 2 | 4 | 8 | 17.2 | 4.0 | > 1 | significant lytic effect | 4 | 16 | 4 | – | – | – | –
2 | CC[C@H](C)[C@H](NC(=O)[C@H](Cc1c[nH]c2ccccc12)NC(=O)[C@H](CCCCN)NC(=O)C(C)(C)NC(=O)[C@@H](NC(=O)[C@H](CCCCN)NC(=O)CNC(=O)[C@@H](NC(=O)[C@H](CCCCN)NC(=O)[C@H](CCCCN)NC(=O)[C@H](CC(C)C)NC(=O)[C@H](CCCNC(=N)N)NC(=O)[C@H](CCCCN)NC(C)=O)[C@@H](C)CC)C(C)C)C(N)=O [h] (Ac-KRLKKIGKV[Aib]KWI-NH2) | 2 (≈ 3.25 µg/mL) | > 64 | 8 (≈ 13 µg/mL) | 11.7 | – | – | no membranolytic effect | 8 (≈ 13 µg/mL) | 8 (≈ 13 µg/mL) | 4 (≈ 6.49 µg/mL) | 50 | up to 180 min | >64 | 2 to 8
